Experiments:
[1] = system: mTOR and AR pathways in LNCaP95 cells; test: Western blot analysis of mTOR and AR pathways in LNCaP95 cells; assay type: cell-based, human; settings: for expression of UBE2C / pS6 levels: enzalutamide 10 uM; for pS6 levels: regardless of androgen status; for BEZ-235-increased protein levels of FL-AR, AR-V7 and PSA: elevations caused by BEZ-235 15 nM, LNCaP95 and LNCaP cells
Description: Cells were harvested and whole-cell lysate (10 to 15 ug) was subjected to SDS-PAGE. Antibodies used were: AR (1:1000; Santa Cruz), AR-V7 (1:400; Precision), p110α (1:500; BD Bioscience), p110β (1:1000; abcam), […] (1:1000; abcam), p110δ (1:1000; abcam), UBE2C (Boston Biochem; 1:1000), PTEN (1:1000), pS6 (1:2000), pAktThr308 (1:1000), pAktSer473 (1:2000), p4EBP1 (1:1000), total-Akt (1:1000), total-S6 (1:1000), total-4EBP1 (1:1000), pERK/MAPK (1:1000), total-ERK/MAPK (1:1000) from Cell Signaling technology (Danvers, Mass.). β-actin (1:10,000, Abcam) was used as a loading control.
Protein levels of PSA were undetectable in LNCaP95 cells.

[2] = system: LNCaP95 cells; test: Cell proliferation BrdU immunoassay; assay type: cell-based, human; settings: R1881 0.1 nM, 48 h, serum-free, Compound A 25 uM, enzalutamide 10 uM, BEZ-235 15 nM, everolimus 10 nM
[3] = molecular target: T1, AR NTD (Homo sapiens, UniProt P10275); test: AR NTD transactivation assay in LNCaP cells; assay type: cell-based; settings: IL-6 50 ng/ml, 24 h
T1 sequence (P10275 1-558): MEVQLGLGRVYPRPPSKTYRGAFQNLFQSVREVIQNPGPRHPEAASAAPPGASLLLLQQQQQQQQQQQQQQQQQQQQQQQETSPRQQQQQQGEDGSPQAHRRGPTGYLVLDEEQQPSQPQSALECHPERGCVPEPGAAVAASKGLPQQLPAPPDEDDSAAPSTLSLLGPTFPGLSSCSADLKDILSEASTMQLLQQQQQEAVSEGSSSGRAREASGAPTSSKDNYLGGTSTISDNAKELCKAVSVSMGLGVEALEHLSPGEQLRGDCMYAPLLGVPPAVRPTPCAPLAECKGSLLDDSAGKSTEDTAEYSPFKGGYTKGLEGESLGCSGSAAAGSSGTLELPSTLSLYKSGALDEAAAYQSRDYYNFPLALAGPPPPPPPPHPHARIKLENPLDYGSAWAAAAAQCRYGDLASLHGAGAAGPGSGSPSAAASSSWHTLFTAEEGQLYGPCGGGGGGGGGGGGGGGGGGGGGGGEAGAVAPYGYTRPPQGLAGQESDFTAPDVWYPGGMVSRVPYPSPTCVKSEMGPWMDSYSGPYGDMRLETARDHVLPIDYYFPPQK
Description: Transactivation assays of the AR NTD were performed in LNCaP and LNCaP95 cells cotransfected with p5xGal4UAS-TATA-luciferase and AR NTD-Gal4DBD (FIG. 2D). […] LNCaP95 cells were harvested 24 h after the treatment of indicated compounds.
The AR NTD is essential for full transcriptional activities (Quayle, S. N. et. al., PNAS 2007, 104, 1331-1336). In LNCaP cells, transactivation of the AR NTD can be induced with IL-6 or by stimulation of the PKA pathway with FSK. In LNCaP95 cells, there is high intrinsic activity of the AR NTD which cannot be further induced by stimulation of these pathways.

[4] = system: genes regulated by FL-AR and AR-V7 in LNCaP95 cells; test: Gene expression analysis (quantitative real-time RT-PCR) in LNCaP95 cells; assay type: cell-based, human
[5] = system: LNCaP95 xenografts; test: Immunohistochemistry of harvested xenografts; assay type: in vivo, mice
[6] = molecular target: T2, AR (Homo sapiens, UniProt P10275, T878A); test: PSA-, ARR3-, PB-luciferase AR reporter assay in LNCaP95 cells; settings: LNCaP95 cells treated with androgen and BEZ-235 15 nM
T2 sequence (P10275 1-920 T878A): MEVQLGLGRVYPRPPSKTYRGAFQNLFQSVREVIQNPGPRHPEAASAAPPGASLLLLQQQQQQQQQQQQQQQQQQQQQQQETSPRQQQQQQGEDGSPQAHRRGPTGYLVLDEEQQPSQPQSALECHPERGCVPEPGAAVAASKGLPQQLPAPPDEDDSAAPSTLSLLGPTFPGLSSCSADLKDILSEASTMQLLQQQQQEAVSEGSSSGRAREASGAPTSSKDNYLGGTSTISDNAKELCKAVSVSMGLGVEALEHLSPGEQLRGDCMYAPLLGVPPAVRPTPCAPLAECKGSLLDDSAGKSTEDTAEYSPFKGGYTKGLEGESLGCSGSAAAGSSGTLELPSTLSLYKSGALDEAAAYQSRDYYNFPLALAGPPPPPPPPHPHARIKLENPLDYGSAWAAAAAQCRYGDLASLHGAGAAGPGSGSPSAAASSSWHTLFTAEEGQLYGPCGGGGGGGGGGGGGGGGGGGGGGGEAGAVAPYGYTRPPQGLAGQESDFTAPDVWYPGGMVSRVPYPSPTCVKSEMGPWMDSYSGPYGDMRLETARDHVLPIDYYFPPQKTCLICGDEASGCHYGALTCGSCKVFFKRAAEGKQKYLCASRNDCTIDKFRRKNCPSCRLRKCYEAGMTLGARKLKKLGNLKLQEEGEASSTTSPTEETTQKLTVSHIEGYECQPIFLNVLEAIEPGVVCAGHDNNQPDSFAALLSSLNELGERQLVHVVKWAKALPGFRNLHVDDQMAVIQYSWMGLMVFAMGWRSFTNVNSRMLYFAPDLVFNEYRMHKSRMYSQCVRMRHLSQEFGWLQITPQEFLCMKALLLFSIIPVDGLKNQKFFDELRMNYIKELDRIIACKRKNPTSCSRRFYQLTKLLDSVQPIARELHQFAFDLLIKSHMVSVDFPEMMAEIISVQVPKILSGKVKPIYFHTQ

[7] = system: mTOR and AR pathways in parental LNCaP cells; test: Western blot analysis of mTOR and AR pathways in parental LNCaP cells; assay type: cell-based, human; settings: parental LNCaP cells, R1881 1 nM
[8] = system: LNCaP95 xenografts; test: Western blot analyses of protein lysates from xenografts; assay type: in vivo, mice
[9] = LNCaP95 cells, Compound A 25 uM
[10] = absence of androgen, with BEZ-235
[11] = in response to androgen, Compound A 35 uM
[12] = harvested tumors, Compound A 100 mg/kg, BEZ-235 5 mg/kg

## CC(C)(c1ccc(OC[C@H](O)CO)cc1)c1ccc(OC[C@H](O)CCl)cc1 [Compound A]
[1]; [9]
  expression of UBE2C: markedly reduced
  pS6 levels: reduced
[1]; LNCaP95 cells, presence of androgen (R1881 1 nM), Compound A 25 uM
  levels of FKBP5: no effect
[1]
  BEZ-235-increased protein levels of FL-AR, AR-V7 and PSA: at least in part attenuated
[2]
  proliferation (BrdU incorporation): inhibited
[3]
  AR-NTD transactivation induced by IL-6: significantly inhibited
[4]; absence of androgen
  transcript levels of AR-V7 target genes (UBE2C, CDC20, Akt1): consistently reduced
[4]; [10]
  BEZ-235-induced increase in transcript levels of AR-V7: blocked
  BEZ-235-induced levels of PSA transcript: blocked
[4]; [11]
  expression of FKBP5: inhibited
  expression of KLK3: inhibited
  expression of TMPRSS2: inhibited
[4]; monotherapy, regardless of androgen
  UBE2C levels: attenuated
[5]
  apoptosis (TUNEL staining): increased
  proliferation (Ki67 staining): significantly decreased
[5]; immunohistochemistry
  UBE2C staining: reduced
  pS6 staining: reduced
[6]
  BEZ-235-increased PSA-, ARR3- and PB-luciferase activities: blocked
[7]
  androgen-induced FKBP5: poor inhibitor
  androgen-induced levels of PSA: comparable to enzalutamide
[8]; harvested tumors, normalized to total 4EBP1
  levels of p4EBP1: no significant change
[8]; harvested tumors, normalized to total Akt
  levels of pAkt: no significant change
[8]; [12]
  protein levels of UBE2C: reduced
  protein levels of pS6: reduced
[8]; in vivo, monotherapies
  protein levels of FKBP5: reduced

## CNC(=O)c1ccc(N2C(=S)N(c3ccc(C#N)c(C(F)(F)F)c3)C(=O)C2(C)C)cc1F [enzalutamide, 4-(3-(4-cyano-3-(trifluoromethyl)phenyl)-5,5-dimethyl-4-oxo-2-thioxoimidazolidin-1-yl)-2-fluoro-N-methylbenzamide]
[1]; [9]
  expression of UBE2C: not
  pS6 levels: decreased
[1]
  BEZ-235-increased protein levels of FL-AR, AR-V7 and PSA: at least in part attenuated
[7]
  androgen-induced levels of PSA: blocking

## CO[C@H]1C[C@@H]2CC[C@@H](C)[C@@](O)(O2)C(=O)C(=O)N2CCCC[C@H]2C(=O)O[C@H]([C@H](C)C[C@@H]2CC[C@@H](OCCO)[C@H](OC)C2)CC(=O)[C@H](C)/C=C(\C)[C@@H](O)[C@@H](OC)C(=O)[C@H](C)C[C@H](C)/C=C/C=C/C=C/1C [everolimus]
[1]; LNCaP95 cells, BEZ-235 15 nM, everolimus
  pAkt: without decreasing
[1]; LNCaP95 cells, absence of androgen, everolimus
  levels of UBE2C: reduced
[1]; LNCaP95 cells, titration experiments
  protein levels of FL-AR: increased
[1]; LNCaP95 cells, titration, BEZ-235 15 nM, everolimus 10 nM
  pS6 ribosomal protein: reduced
[2]
  proliferation (BrdU incorporation): inhibited

From patent US20170056336A1, “CO-TARGETING ANDROGEN RECEPTOR SPLICE VARIANTS AND MTOR SIGNALING PATHWAY FOR THE TREATMENT OF CASTRATION-RESISTANT PROSTATE CANCER” (British Columbia Cancer Agency Branch, priority 2015, published 2017)
